Experimental data published in patent publication US20230111310A1, “CARBOXYLIC ACID DERIVATIVE-SUBSTITUTED IMINO ARYL COMPOUND, PREPARATION METHOD THEREFOR, HERBICIDAL COMPOSITION AND USE THEREOF” (Qingdao Kingagroot Chemical Compound Co., Ltd., priority 2020, published 2023).

How the values were obtained:
Assay type in all cases: in vivo
Lolium multiflorum Lamk. = assay: Composition activity test, soil sealing treatment; conditions: B 300 g a.i./ha
Protocol: (§1) are as follows, and the others were purchased from reagent companies. The technical materials were all dissolved in acetone and diluted with an aqueous solution containing 0.1% emulsifier Tween-80. The dilution is performed as required.
(§2) Weeds are cultivated in a controllable sunlight greenhouse at 20 to 30° C., in natural light, and relative humidity of 57% to 72%. […] The test soil was placed quantitatively to 3/4 of the pots and then watered from the bottom of the pots to completely wet the soil to saturation. The test weed seeds were germinated, and uniformly and quantitatively sowed on the surface, then covered with 0.5-2 cm soil according to the seed size, and ready-for use 72 hours after sowing.
(§3) 3 pots with 30 weed seeds per pot were treated in one treatment with 4 replications per treatment.
(§4) The well-sowed weeds were evenly placed on a platform with an area of 0.5 m^2, and a solution of agents was sprayed on the soil thereof by the 3WP-2000-type walking spray tower at a dosage of 450 kg/ha and at a spray pressure of 0.3 MPa. After all the solution was sprayed, the valve was closed. After 30 seconds, the door of the spray tower was opened, and the nutritional bowl was taken out. Then the valve was opened, and the spray tube was cleaned by spraying 50 ml of water.
(§5) A method for investigating absolute number was employed, wherein whole seedlings of survival weeds were cut off with a blade along the soil surface, and the fresh weight of the weeds was weighed with an analytical balance. For dead weeds, the fresh weight thereof was zero.
(§6) The investigation was performed after 21 days of the treatment for only once.
(§7) An optimum ratio of the two active ingredients was determined by the actual control effect, characteristics of herbicides, and balance of a corresponding formula. Wherein, in the formula, X represented the fresh weight inhibition rate of the active ingredient A in a dosage of P, and Y represented the fresh weight inhibition rate of the active ingredient B in a dosage of Q. The statistical results were shown in the table 6.

Descurainia sophia = assay: Composition activity test, soil sealing treatment
Protocol: as §1, §2, §3, §4, §5, §6, §7

Eleusine indica = assay: Composition activity test, post-emergence foliage spray
Protocol: as §1
(§8) Weeds were cultivated by a pot culture method. […] Full and uniform weed seeds were selected, soaked in warm water at 25° C. for 6 hours, and germinated in a 28° C. biochemical incubator (darkness). The weed seeds that had just germinated were evenly placed on the surface of the soil and then covered with 0.5-1 cm soil according to the sizes of seeds.
(§9) The culture was carried out in a controllable sunlight greenhouse at 20 to 30° C., in natural light, and relative humidity of 57% to 72%.
(§10) 3 pots with 20 weed seeds per pot were treated in one treatment with 4 replications per treatment.
(§11) The agents were used for only once in the experiment. In the stage of weeds with 1.5-2 leaves, the weeds were thinned out to maintain 10 weeds per pot and 30 weeds for each treatment, then continued to be cultured to Conyza Canadensis 10 cm in height, other weeds 3-4 leaves stage and treated.
(§12) The well-cultured weeds were evenly placed on a platform with an area of 0.5 m^2, and a solution of agents was sprayed on the stems and leaves thereof by the 3WP-2000-type walking spray tower at a dosage of 450 kg/ha and at a spray pressure of 0.3 MPa. After all the solution was sprayed, the valve was closed. After 30 seconds, the door of the spray tower was opened, and the nutritional bowl was taken out. Then the valve was opened, and the spray tube was cleaned by spraying 50 ml of water. After the treatment, the weeds were routinely cultured in a greenhouse.
as §5, §6, §7

Leptochloa chinensis = assay: Composition activity test, soil sealing treatment
Protocol: as §1, §2, §3, §4, §5, §6, §7

Eriochloa villosa = assay: Composition activity test, post-emergence foliage spray
Protocol: as §1, §8, §9, §10, §11, §12, §5, §6, §7

Capsella bursa-pastoris = assay: as above
Protocol: as §1, §8, §9, §10, §11, §12, §5, §6, §7

Conyza Canadensis = assay: as above
Protocol: as §1, §8, §9, §10, §11, §12, §5, §6, §7

Cyperus difformis = assay: as above
Protocol: as §1, §8, §9, §10, §11, §12, §5, §6, §7

Cyperus serotinus = assay: as above
Protocol: as §1, §8, §9, §10, §11, §12, §5, §6, §7

Amaranthus retroflexus = assay: Composition activity test, soil sealing treatment
Protocol: as §1, §2, §3, §4, §5, §6, §7

[1] = test system: Echinochloa caudata Roshev.; assay: Composition activity test, post-emergence foliage spray
Protocol: as §1, §8, §9, §10, §11, §12, §5, §6, §7

Echinochloa crusgalli = assay: Composition activity test, soil sealing treatment; conditions: B 600 g a.i./ha
Protocol: as §1, §2, §3, §4, §5, §6, §7

SMILES: Cc1ccccc1CO[C@@H]1C[C@@]2(C(C)C)CC[C@]1(C)O2 (racemic) [cinmethylin]
- Control effect (%) of B applied alone (B) (Lolium multiflorum Lamk.): 33.7%

SMILES: COP(=S)(OC)SCC(=O)N(c1ccc(Cl)cc1)C(C)(C)C [anilofos]
- Control effect (%) of B applied alone (B) (Descurainia sophia; B 75 g a.i./ha): 38.3%

SMILES: CC1(C)CON(Cc2ccc(Cl)cc2Cl)C1=O [bixlozone]
- Control effect (%) of B applied alone (B) (Eleusine indica; B 180 g a.i./ha): 36.7%

SMILES: CCCCOCN(C(=O)CCl)c1c(CC)cccc1CC [butachlor]
- Control effect (%) of B applied alone (B) (Descurainia sophia; B 225 g a.i./ha): 42.2%

SMILES: CCC(C)Nc1c([N+](=O)[O-])cc(C(C)(C)C)cc1[N+](=O)[O-] (stereo not shown) [butralin]
- Control effect (%) of B applied alone (B) (Leptochloa chinensis; B 180 g a.i./ha): 47.4%

SMILES: CCSC(C)CC1CC(=O)C(/C(CC)=N/OC/C=C/Cl)=C(O)C1 (stereo not shown) [clethodim]
- Control effect (%) of B applied alone (B) (Eriochloa villosa; B 30 g a.i./ha): 35.5%

SMILES: CC1(C)CON(Cc2ccccc2Cl)C1=O [clomazone]
- Control effect (%) of B applied alone (B) (Eleusine indica; B 150 g a.i./ha): 46.5%

SMILES: O=C(Nc1ccc(F)cc1F)c1cccnc1Oc1cccc(C(F)(F)F)c1 [diflufenican]
- Control effect (%) of B applied alone (B) (Capsella bursa-pastoris; B 75 g a.i./ha): 33.1%

SMILES: c1cc[n+]2c(c1)-c1cccc[n+]1CC2 [diquat dibromide monohydrate]
- Control effect (%) of B applied alone (B) (Conyza Canadensis; B 300 g a.i./ha): 37.8%
- Control effect (%) of B applied alone (B) (Cyperus difformis; B 300 g a.i./ha): 18.4%

SMILES: CC(C)N(C(=O)COc1nnc(C(F)(F)F)s1)c1ccc(F)cc1 [flufenacet]
- Control effect (%) of B applied alone (B) (Descurainia sophia; B 150 g a.i./ha): 45.6%

SMILES: CNC1=C(c2cccc(C(F)(F)F)c2)C(=O)C(c2ccccc2)O1 (stereo not shown) [flurtamone]
- Control effect (%) of B applied alone (B) (Capsella bursa-pastoris; B 75 g a.i./ha): 56.7%

SMILES: CP(=O)(O)CCC(N)C(=O)O (stereo not shown) [glufosinate ammonium]
- Control effect (%) of B applied alone (B) (Conyza Canadensis; B 300 g a.i./ha): 57.8%
- Control effect (%) of B applied alone (B) (Cyperus serotinus; B 300 g a.i./ha): 23.1%

SMILES: CP(=O)(O)CC[C@H](N)C(=O)O.N [glufosinate-P-ammonium]
- Control effect (%) of B applied alone (B) (Cyperus serotinus; B 150 g a.i./ha): 21.4%

SMILES: O=C(O)CNCP(=O)(O)O [glyphosate]
- Control effect (%) of B applied alone (B) (Conyza Canadensis; B 450 g a.i./ha): 51.2%

SMILES: Cc1ccc2c(c1)[C@H](Nc1nc(N)nc(C(C)F)n1)[C@@H](C)C2 (stereo partly shown) [indaziflam]
- Control effect (%) of B applied alone (B) (Amaranthus retroflexus; B 15 g a.i./ha): 49.3%

SMILES: CS(=O)(=O)c1cc(C(F)(F)F)ccc1C(=O)c1cnoc1C1CC1 [isoxaflutole]
- Control effect (%) of B applied alone (B) ([1]; B 15 g a.i./ha): 41.3%

SMILES: CN(C(=O)COc1nc2ccccc2s1)c1ccccc1 [mefenacet]
- Control effect (%) of B applied alone (B) (Descurainia sophia; B 150 g a.i./ha): 46.4%

SMILES: C[n+]1ccc(-c2cc[n+](C)cc2)cc1 [paraquat dichloride]
- Control effect (%) of B applied alone (B) (Conyza Canadensis; B 225 g a.i./ha): 48.4%
- Control effect (%) of B applied alone (B) (Cyperus difformis; B 150 g a.i./ha): 35.7%

SMILES: CCC(CC)Nc1c([N+](=O)[O-])cc(C)c(C)c1[N+](=O)[O-] [pendimethalin]
- Control effect (%) of B applied alone (B) (Leptochloa chinensis; B 150 g a.i./ha): 43.2%

SMILES: O=C(Nc1ccc(F)cc1)c1cccc(Oc2cccc(C(F)(F)F)c2)n1 [picolinafen]
- Control effect (%) of B applied alone (B) (Capsella bursa-pastoris; B 45 g a.i./ha): 44.4%

SMILES: CCCOCCN(C(=O)CCl)c1c(CC)cccc1CC [pretilachlor]
- Control effect (%) of B applied alone (B) (Descurainia sophia; B 180 g a.i./ha): 51.2%

SMILES: CCCN(CCC)C(=O)SCc1ccccc1 [prosulfocarb]
- Control effect (%) of B applied alone (B) (Echinochloa crusgalli): 32.6%

SMILES: Cn1nc(C(F)(F)F)c(CS(=O)(=O)C2=NOC(C)(C)C2)c1OC(F)F [pyroxasulfone]
- Control effect (%) of B applied alone (B) (Descurainia sophia; B 60 g a.i./ha): 57.6%

SMILES: COC(=O)[C@@H](C)Oc1ccc(Oc2cnc3cc(Cl)ccc3n2)cc1 [quizalofop-P-methyl]
- Control effect (%) of B applied alone (B) (Eriochloa villosa; B 15 g a.i./ha): 41.7%

SMILES: CCc1cccc(C)c1N(C(=O)CCl)[C@@H](C)COC [s-metolachlor]
- Control effect (%) of B applied alone (B) (Descurainia sophia; B 150 g a.i./ha): 31.3%

SMILES: CCC/C(=N\OCC)C1=C(O)CC(CC(C)SCC)CC1=O (stereo not shown) [sethoxydim]
- Control effect (%) of B applied alone (B) (Eriochloa villosa; B 45 g a.i./ha): 36.7%

SMILES: Cc1nn(C)cc1C(=O)Oc1c(C(=O)c2ccc(C(F)(F)F)cc2S(C)(=O)=O)c(C)nn1C [shuangzuocaotong]
- Control effect (%) of B applied alone (B) ([1]; B 15 g a.i./ha): 35.9%

SMILES: CS(=O)(=O)c1ccc(C(=O)C2C(=O)CCCC2=O)c(Cl)c1COCC1CCCO1 (stereo not shown) [tefuryltrione]
- Control effect (%) of B applied alone (B) ([1]; B 30 g a.i./ha): 21.5%

SMILES: CS(=O)(=O)c1ccc(C(=O)C2C(=O)CCCC2=O)c(Cl)c1COCC(F)(F)F [tembotrione]
- Control effect (%) of B applied alone (B) ([1]; B 15 g a.i./ha): 31.7%

SMILES: Cc1c(C(=O)c2cnn(C)c2O)ccc(S(C)(=O)=O)c1C1=NOCC1 [topramezone]
- Control effect (%) of B applied alone (B) ([1]; B 7.5 g a.i./ha): 38.5%

SMILES: Cc1cc(C)cc(OCC(C)Nc2nc(N)nc(C(C)(C)F)n2)c1 (stereo not shown) [triaziflam]
- Control effect (%) of B applied alone (B) (Amaranthus retroflexus; B 30 g a.i./ha): 42.1%
